From patent US20260053778A1, “USE OF NOVEL PPAR ACTIVITY MODULATOR FOR PREVENTION, AMELIORATION OR TREATMENT OF DEGENERATIVE BRAIN DISEASES” (POSTECH RESEARCH AND BUSINESS DEVELOPMENT FOUNDATION, priority 2022, published 2026)

How the values were obtained:
NF-κB = NF-κB gene expression by qPCR after MG132 and DTMB; format: cell-based; conditions: MG132 (20 μM) 6 hours, DTMB (25 μM) 24 hours
Method: In addition, to inhibit proteasomal degradation, cells were treated with MG132 (20 μM) for 6 hours and DTMB (25 μM) for 24 hours, and then the gene expression level of NF-κB was confirmed by qPCR analysis. As shown in the results of FIGS. 2L and 2M, this response was mediated by proteasomal degradation rather than transcriptional inhibition, since there was no change in the mRNA level of NF-κB.

[1] = system: 5×FAD Alzheimer's dementia-induced mice; assay: qPCR of proinflammatory cytokines in brain tissue; format: in vivo, mouse; conditions: 5×FAD mice
Text: The gene expression levels of proinflammatory cytokines and related enzymes (II-1B, Il-6, and iNOS) in the brain tissues of the DTMB-administered and non-administered groups of 5×FAD Alzheimer's dementia-induced mice were confirmed by qPCR.

PPARα = target: T1, PPARα (Homo sapiens, UniProt Q07869); assay: GAL4-transactivation assay in HEK293A cells, PPARα; format: cell-based; conditions: GAL4 reporter, 24 h, compared with WY14643
T1 construct: expressed in transfected cells; host or cells: HEK293A
T1 sequence (Q07869 1-468): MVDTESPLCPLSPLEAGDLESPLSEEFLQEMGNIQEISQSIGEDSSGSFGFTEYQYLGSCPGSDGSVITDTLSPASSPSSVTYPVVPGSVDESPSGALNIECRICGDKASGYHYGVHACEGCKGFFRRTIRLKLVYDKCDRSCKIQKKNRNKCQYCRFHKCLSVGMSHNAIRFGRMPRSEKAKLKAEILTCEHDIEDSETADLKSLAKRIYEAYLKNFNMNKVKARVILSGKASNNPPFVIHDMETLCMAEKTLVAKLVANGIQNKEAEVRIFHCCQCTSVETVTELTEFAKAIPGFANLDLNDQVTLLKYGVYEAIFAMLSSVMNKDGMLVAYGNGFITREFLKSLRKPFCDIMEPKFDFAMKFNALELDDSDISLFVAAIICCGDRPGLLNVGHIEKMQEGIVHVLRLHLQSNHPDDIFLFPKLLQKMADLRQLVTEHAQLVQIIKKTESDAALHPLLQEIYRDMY
Method: A GAL4-transactivation assay experiment was performed to determine whether the drug was bound to the PPAR ligand binding site. HEK293A cells were transfected with GAL4-reporter plasmid and pGL4.74 (Promega, Madison, WI, USA) as an internal standard via electroporation using the Neon Transfection System (Invitrogen, Carlsbad, CA, USA). All vectors were kindly provided by Professor Kanno Yuichiro, Toho University, Japan. After overnight culture, cells were treated with DTMB and each positive control compound for 24 h. Cells were then harvested, resuspended in luciferase lysis buffer (Promega), and incubated on ice for 10 min. Cell debris was removed by centrifugation at 20,000×g, 4° C. for 10 min, and the supernatant was used for the luciferase assay. Luciferase activity was measured using the Dual Luciferase Reporter Assay System (Promega) according to the manufacturer's instructions. In the measurement experiment, firefly luciferase activity was normalized to Renilla luciferase activity. To investigate the concentration-dependent effect of DTMB drug, EC50 values were measured by treating various concentrations of DTMB.

[2] = system: microglial cells isolated from mice; assay: Western blotting of NF-κB, NLRP-3 and ASC in primary microglia; format: cell-based, mouse; conditions: primary microglia treated with Aβ aggregates or LPS, Western blot
Method: To confirm the mechanism by which DTMB exerts its anti-inflammatory effect, microglial cells isolated from mice were treated with Aβ aggregates or LPS to induce an inflammatory response, and then DTMB was treated to determine the levels of NF-κB, NLRP-3, and ASC proteins by western blotting.
The cells were lysed with lysis buffer containing 50 mM Tris (pH 7.4), 140 mM NaCl, 5 mM EDTA, and protease inhibitor tablets, and then sonicated. The protein concentration of the lysate was determined using Bradford reagent (AMERSCO, MA, USA). Proteins were separated by sodium dodecyl sulfate (SDS) polyacrylamide gel electrophoresis, transferred to nitrocellulose membranes (Pall Corporation, New York, NY, USA), and incubated with blocking buffer (5% nonfat dry milk and 0.1% Tween 20 in TBS) for 30 min. Western blot analysis was performed using primary antibodies against NF-κB, NLRP3, and ASC (Cell Signaling Technology, Danvers, MA, USA). Secondary antibodies from rabbit (Promega), rat, and goat (Bethyl Laboratories) were used, and detection was performed using SUPEX ECL reagent (Neuronex, Korea) and ImageQuant LAS-4000 (GE Healthcare, MA, USA) according to the manufacturer's instructions. Integrated blot densities were quantified using ImageJ.

HMO6 cell line = assay: Cell viability assay (MTT), HMO6; format: cell-based; conditions: HMO6, 48 h, at higher concentrations
Method: Cell viability was measured by a chromogenic assay that biologically reduces 3-(4,5-dimethyl-thiazol-2-yl)-2,5-diphenyltetrazolium bromide (MTT) to formazan in living cells. Briefly, cells were cultured in 96-well plates in a final volume of 100 μL. After 24 h, the culture medium was replaced with fresh medium containing DTMB compound, and the cells were cultured for another 48 h. Next, MTT (dissolved in PBS at 5 mg/mL) was added to the culture medium. The cells were cultured in the dark at 37° C. for 1 h, and then the supernatant was removed from the wells. The formazan crystals were dissolved by adding total MTT solvent (4 mM HCl and 0.1% Nonidet P-40, both dissolved in isopropanol), and the absorbance was measured at 570 nm using a microplate reader, Infinite 200 Pro NanoQuant microplate reader (TECAN, Switzerland).

COc1ccc(-c2cc(=O)oc3c(C)c(OC(=O)[C@H](Cc4c[nH]c5ccccc45)NC(=O)OC(C)(C)C)ccc23)cc1 [DTMB, [4-(4-Methoxyphenyl)-8-methyl-2-oxochromen-7-yl](2S)-3-(1H-indol-3-yl)-2-[(2-methylpropan-2-yl)oxycarbonylamino]propanoate]
mRNA level of NF-κB (NF-κB): no change
Expression level of Il-1β [1]: decreased
Expression level of Il-6 [1]: decreased
Expression level of iNOS [1]: decreased
PPARα activation versus positive control (PPARα): activated at a lower concentration than WY14643
NF-κB protein level [2]: reducing NF-κB
NLRP3 protein level [2]: reduced
Cytotoxicity (MTT) (HMO6 cell line): no cytotoxicity
